Key:
freshly dug potatoes = assay: outdoor pile of injured, freshly dug potatoes sprayed with pure 1,4-dimethyl naphthalene; type: in vivo, potato; details: outdoors, humidity about 40%, no control sample
From the text: A pile of freshly dug potatoes having considerable injuries such as cuts, scrapes and abrasions were sprayed with pure 1,4-dimethyl naphthalene. The pile was located outdoors with a humidity condition of about 40%. […] Although a control sample wasn't used, potatoes with such a large quantity of cuts, abrasions and the like in an exposed, low humidity environment would typically show minimal healing and a considerable amount of rot.

stored potatoes [1] = assay: low humidity storage after early treatment with 1,4-DMN; type: in vivo, potato; details: storage conditions of 85%, and less
From the text: No approved method exists for treating silver scruff. Effective fungicides are not approved for treatment of potatoes. […] A disadvantage of low humidity storage is that such potatoes dehydrate and soften. This causes the potatoes to be less acceptable for certain markets and results in some loss of product.

[2] = tested on: potatoes which have started to sprout; assay: treatment of potatoes which have started to sprout; type: in vivo, potato; details: certain types of potatoes which have started to sprout
From the text: For example, in treating a potato storage facility with liquid sprout inhibitor such as an isomer of DMN, especially the 1,4 and 1,6 isomers of DMN, it is only necessary to have a very low concentration of DMN in the atmosphere inasmuch as the quantity of DMN in a potato is very low so that only very minor quantities of DMN respire or exit the potato. Thus, only a very low partial pressure for DMN is created in a static air space surrounding a potato by respiration. The purpose of DMN in the atmosphere surrounding potatoes is to stop or reduce the exiting of DMN from the potato. Once DMN exiting starts, it is believed that such departure initiates the process which leads to sprouting. […] Thus, in applying liquid sprout inhibitors which are found natively in potatoes it is generally preferred to initiate treatment prior to the onset of sprouting and preferably prior to any considerable exiting of DMN, for example, from the stored potato.
Although, as indicated in the Plant patent, CIPC is not applied until after suberization (wound healing). DMN is preferably applied initially shortly after the potatoes have been put into the facility. […] Also, unlike CIPC, DMN is not a foreign material to a potato.

stored potatoes [3] = details: early application to stored potatoes; cited from earlier work

Cc1ccc(C)c2ccccc12 [1,4-dimethyl naphthalene]
evidence of rot in injured potatoes (freshly dug potatoes; about two days after spraying): only a small portion of the injured potatoes showing any evidence of rot
time after spraying until suberization processes appeared to be complete (freshly dug potatoes; pure compound sprayed): two
hydration and firmness of potatoes in low humidity storage (stored potatoes [1]): stay hydrated and firm

CC(C)OC(=O)Nc1cccc(Cl)c1 [CIPC, Chloroisopropyl-N-carbamate]
effect on sprouting once sprouting has been initiated [2]: generally retard potato sprouting even after sprouting has been initiated
effect on suberization (stored potatoes [3]): tends to retard suberization
